In the test the target is T1, GlG6PD::6PGL (fused bifunctional glucose-6-phosphate dehydrogenase::6-phosphogluconolactonase) (Giardia duodenalis, UniProt A8BWM5).
T1 construct: gene GL50803_008682; recombinant fused GlG6PD::6PGL; activity of the G6PD domain measured
The test can be described thus: residual G6PD activity at […] nm after […] h preincubation at […] °C with purified recombinant enzyme; k2 […] ^-1 s^-1; intrinsic and ANS fluorescence changes. It is filed as biochemical.

We go through one molecule from publication PMC10380810, “Nitazoxanide Inhibits the Bifunctional Enzyme GlG6PD::6PGL of Giardia lamblia: Biochemical and In Silico Characterization of a New Druggable Target” (International Journal of Molecular Sciences, 2023).

Molecules are shown by their SMILES.

T1 sequence (A8BWM5 entry or part of it): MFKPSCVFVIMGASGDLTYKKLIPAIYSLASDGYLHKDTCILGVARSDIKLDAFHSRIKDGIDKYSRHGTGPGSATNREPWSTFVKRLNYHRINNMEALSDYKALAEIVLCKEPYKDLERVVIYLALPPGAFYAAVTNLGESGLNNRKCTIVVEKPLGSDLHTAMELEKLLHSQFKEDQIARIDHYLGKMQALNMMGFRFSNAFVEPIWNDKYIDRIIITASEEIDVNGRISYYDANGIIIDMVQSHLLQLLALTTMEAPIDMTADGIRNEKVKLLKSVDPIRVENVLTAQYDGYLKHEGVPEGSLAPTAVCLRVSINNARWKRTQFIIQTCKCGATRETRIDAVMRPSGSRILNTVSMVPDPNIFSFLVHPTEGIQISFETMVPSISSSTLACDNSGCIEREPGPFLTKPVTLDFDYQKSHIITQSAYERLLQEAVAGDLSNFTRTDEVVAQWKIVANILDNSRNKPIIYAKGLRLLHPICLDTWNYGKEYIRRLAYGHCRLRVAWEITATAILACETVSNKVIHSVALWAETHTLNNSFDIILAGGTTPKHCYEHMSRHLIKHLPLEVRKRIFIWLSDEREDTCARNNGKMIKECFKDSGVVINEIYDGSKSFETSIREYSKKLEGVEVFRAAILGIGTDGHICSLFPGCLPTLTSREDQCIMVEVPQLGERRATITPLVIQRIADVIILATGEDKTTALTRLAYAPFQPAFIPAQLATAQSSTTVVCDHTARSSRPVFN

A word on the IC50: it is the concentration that gives 50% inhibition. Take `CC(=O)Oc1ccccc1C(=O)Nc1ncc([N+](=O)[O-])s1` [NTZ, 2-acetyloloxy-N-(5-nitro-2thiazolyl)benzamide]: the IC50 was 40 µM.
